Measured values reported in the NIST ThermoML archive (doi:10.1021/je700260f).

Details: Liquid, Vibrating tube method

FC(C(F)(F)F)C(F)(F)F [1,1,1,2,3,3,3-heptafluoropropane]
Details	mass density [kg/m3]
303.15 K, 31383 kPa	1520.3
303.15 K, 31415 kPa	1520.5
303.15 K, 31442 kPa	1520.5
303.15 K, 31478 kPa	1520.6
303.15 K, 31506 kPa	1520.8
303.15 K, 31538 kPa	1520.8
303.15 K, 31570 kPa	1521.1
303.15 K, 31607 kPa	1521.1
303.15 K, 31634 kPa	1521.1
303.15 K, 31671 kPa	1521.3
303.15 K, 31699 kPa	1521.4
303.15 K, 31745 kPa	1521.4
303.15 K, 31773 kPa	1521.7
303.15 K, 31806 kPa	1521.7
303.15 K, 31839 kPa	1521.9
303.15 K, 31871 kPa	1521.8
303.15 K, 31914 kPa	1522
303.15 K, 33938 kPa	1528.3
303.15 K, 33968 kPa	1528.3
303.15 K, 34013 kPa	1528.4
303.15 K, 34044 kPa	1528.6
303.15 K, 34091 kPa	1528.8
303.16 K, 1756 kPa	1377.1
303.16 K, 1773 kPa	1377.2
303.16 K, 1841 kPa	1377.8
303.16 K, 2155 kPa	1380.4
303.16 K, 2175 kPa	1380.5
303.16 K, 2196 kPa	1380.8
303.16 K, 2220 kPa	1380.9
303.16 K, 2238 kPa	1381
303.16 K, 2262 kPa	1381.2
303.16 K, 2781 kPa	1385.3
303.16 K, 2809 kPa	1385.5
303.16 K, 2833 kPa	1385.7
303.16 K, 2855 kPa	1385.8
303.16 K, 2874 kPa	1386.1
303.16 K, 2903 kPa	1386.2
303.16 K, 2923 kPa	1386.5
303.16 K, 2945 kPa	1386.6
303.16 K, 2970 kPa	1386.7
303.16 K, 3045 kPa	1387.3
303.16 K, 3161 kPa	1388.3
303.16 K, 3180 kPa	1388.4
303.16 K, 3245 kPa	1388.9
303.16 K, 3334 kPa	1389.4
303.16 K, 4314 kPa	1396.7
303.16 K, 4345 kPa	1396.9
303.16 K, 4366 kPa	1397.2
303.16 K, 4395 kPa	1397.2
303.16 K, 4845 kPa	1400.4
303.16 K, 9092 kPa	1427.1
303.16 K, 9131 kPa	1427.4
303.16 K, 9158 kPa	1427.5
303.16 K, 9192 kPa	1427.6
303.16 K, 9223 kPa	1427.9
303.16 K, 20848 kPa	1482.9
303.16 K, 20912 kPa	1483.1
303.16 K, 20941 kPa	1483.3
303.16 K, 20974 kPa	1483.4
303.16 K, 21003 kPa	1483.6
313.14 K, 2256 kPa	1337.4
313.14 K, 2281 kPa	1337.6
313.14 K, 2307 kPa	1337.9
313.14 K, 2329 kPa	1337.9
313.14 K, 2362 kPa	1338.4
313.14 K, 2381 kPa	1338.6
313.14 K, 2406 kPa	1338.8
313.14 K, 2431 kPa	1339.2
313.14 K, 2463 kPa	1339.5
313.14 K, 2485 kPa	1339.7
313.14 K, 2518 kPa	1339.8
313.14 K, 2546 kPa	1340.2
313.14 K, 2571 kPa	1340.5
313.14 K, 2596 kPa	1340.7
313.14 K, 2621 kPa	1340.9
313.14 K, 2650 kPa	1341.2
313.14 K, 2671 kPa	1341.5
313.14 K, 3117 kPa	1345.6
313.14 K, 3144 kPa	1345.9
313.14 K, 3170 kPa	1346
313.14 K, 3193 kPa	1346.3
313.14 K, 3223 kPa	1346.7
313.14 K, 3247 kPa	1346.8
313.14 K, 3275 kPa	1347
313.14 K, 4237 kPa	1355.5
313.14 K, 4266 kPa	1355.8
313.14 K, 4299 kPa	1356.1
313.14 K, 4328 kPa	1356.3
313.14 K, 4487 kPa	1357.8
313.14 K, 4509 kPa	1358
313.14 K, 4539 kPa	1358.2
313.14 K, 4561 kPa	1358.3
313.14 K, 4590 kPa	1358.4
313.14 K, 4614 kPa	1358.7
313.14 K, 4639 kPa	1359
313.14 K, 4660 kPa	1359.2
313.14 K, 4688 kPa	1359.4
313.14 K, 4710 kPa	1359.5
313.14 K, 5002 kPa	1362.2
313.14 K, 6187 kPa	1371.4
313.14 K, 6210 kPa	1371.5
313.14 K, 6240 kPa	1371.6
313.14 K, 6264 kPa	1371.8
313.14 K, 6295 kPa	1372.2
313.14 K, 6319 kPa	1372.4
313.14 K, 6347 kPa	1372.4
313.14 K, 6379 kPa	1372.7
313.14 K, 8595 kPa	1388.5
313.14 K, 12590 kPa	1413.1
313.14 K, 13048 kPa	1415.8
313.14 K, 13083 kPa	1416
313.14 K, 14273 kPa	1422.5
313.14 K, 14312 kPa	1422.7
313.14 K, 14342 kPa	1422.9
313.14 K, 18535 kPa	1443.8
313.14 K, 18569 kPa	1443.9
313.14 K, 18598 kPa	1444.1
313.14 K, 18633 kPa	1444.1
313.14 K, 18662 kPa	1444.3
313.14 K, 25516 kPa	1473.5
313.14 K, 25569 kPa	1473.8
313.14 K, 25615 kPa	1473.9
313.14 K, 25663 kPa	1474
313.14 K, 25698 kPa	1474.2
313.14 K, 25734 kPa	1474.4
313.14 K, 25776 kPa	1474.5
313.14 K, 25819 kPa	1474.7
313.14 K, 25862 kPa	1474.7
313.14 K, 25905 kPa	1475
313.14 K, 25953 kPa	1475.3
313.14 K, 25993 kPa	1475.3
313.14 K, 26035 kPa	1475.5
313.14 K, 26070 kPa	1475.7
313.14 K, 26129 kPa	1475.7
313.14 K, 26171 kPa	1475.9
313.14 K, 26230 kPa	1476.2
313.14 K, 26265 kPa	1476.5
313.14 K, 26307 kPa	1476.7
313.14 K, 26355 kPa	1476.6
313.14 K, 26384 kPa	1476.9
313.14 K, 26431 kPa	1477
313.14 K, 26467 kPa	1477.1
313.14 K, 26516 kPa	1477.3
313.14 K, 26563 kPa	1477.5
313.14 K, 26598 kPa	1477.7
313.14 K, 26634 kPa	1477.8
313.14 K, 26676 kPa	1477.9
313.14 K, 26712 kPa	1478
313.14 K, 26759 kPa	1478.2
313.14 K, 26806 kPa	1478.3
313.14 K, 26855 kPa	1478.6
313.14 K, 26891 kPa	1478.6
313.14 K, 26928 kPa	1478.9
313.14 K, 26976 kPa	1479
313.14 K, 27297 kPa	1480.2
313.14 K, 27651 kPa	1481.6
313.14 K, 27676 kPa	1481.7
313.14 K, 27719 kPa	1481.9
313.14 K, 27749 kPa	1482
313.14 K, 27835 kPa	1482.4
313.14 K, 27864 kPa	1482.4
313.14 K, 28790 kPa	1485.8
313.14 K, 28820 kPa	1485.9
313.14 K, 28855 kPa	1486.1
313.14 K, 28889 kPa	1486.1
313.14 K, 28918 kPa	1486.2
313.14 K, 28953 kPa	1486.3
313.14 K, 28993 kPa	1486.5
313.14 K, 29033 kPa	1486.8
313.14 K, 29059 kPa	1486.6
313.14 K, 29641 kPa	1489
313.14 K, 29682 kPa	1489.1
313.14 K, 29711 kPa	1489.2
313.14 K, 29757 kPa	1489.4
313.14 K, 29798 kPa	1489.5
313.14 K, 29841 kPa	1489.5
313.14 K, 29883 kPa	1489.8
313.14 K, 29915 kPa	1489.9
313.14 K, 29950 kPa	1489.9
313.14 K, 29980 kPa	1490.2
313.14 K, 30015 kPa	1490.2
313.14 K, 30045 kPa	1490.2
313.14 K, 30081 kPa	1490.3
313.14 K, 30117 kPa	1490.6
313.14 K, 30159 kPa	1490.6
313.14 K, 30185 kPa	1490.7
313.14 K, 30217 kPa	1491
313.14 K, 30259 kPa	1491.1
313.14 K, 30299 kPa	1491.3
313.14 K, 30342 kPa	1491.3
313.14 K, 30376 kPa	1491.5
313.14 K, 30424 kPa	1491.8
313.14 K, 30466 kPa	1491.8
313.14 K, 30511 kPa	1492
313.14 K, 30547 kPa	1492
313.14 K, 30593 kPa	1492.2
313.14 K, 30624 kPa	1492.2
313.14 K, 30664 kPa	1492.6
313.14 K, 30690 kPa	1492.5
313.14 K, 30727 kPa	1492.7
313.14 K, 30775 kPa	1492.8
313.14 K, 30815 kPa	1493
313.14 K, 30847 kPa	1493.3
313.14 K, 30889 kPa	1493.2
313.14 K, 30921 kPa	1493.5
313.14 K, 30962 kPa	1493.5
